Source: patent US8731655B2, “Compounds containing acyclic N-N bonds for phototherapy” (Mallinckrodt LLC, priority 2009, dated 2014)

Columns and labels:
[1] = tested on: human myeloid leukemia U937 cell line; experiment: Cell viability upon exposure of tumor cells to photosensitizer and light; assay type: cell-based; settings: for cell viability result in words: U937 cells exposed to light in presence of photosensitizer, various concentrations and durations; for percent viability: U937 cells
Experimental: (§1) Abstract: A class of Type 1 photosensitizer containing fragile —N—N— bonds that produce reactive intermediates upon photoexcitation was prepared and tested in vitro. U937 leukemia cells were incubated with the photosensitizer at various concentrations and irradiated with 325-425 nm light at various durations.
(§2) Cell Viability Measurements: A general procedure is carried out for measuring cell viability upon exposure of tumor cells to a photosensitizer having Formula (FX23) or (FX25) and light. The photosensitizer (FX23) has an absorption maxima (λmax) of 385 nm. The cell viability analysis is carried out using human myeloid leukemia U937 cell line by the standard WST-1 assay. In this procedure, U397 Luekemia cells (0.5×10^6) are plated in standard T-25 cell culture flasks, and are exposed to four controls and a series of test conditions corresponding to a range of photosensitizer concentrations.
(§3) The photosensitizers having formula (FX23) and (FX25) are dissolved in DMSO at an initial concentration of about 8 mM and diluted with water to the final desired value such that amount of DMSO exposed to the cells is below 0.5%. The cells are incubated at 37° C. with various concentrations the photosensitizer for about 30 minutes prior to the exposure of light. […] It should be noted that in the present study, the light source is not optimized with respect to power and wavelength. The viability of cells is assessed after 24 hours following light exposure. The light source is a B-100SP High Intensity Lamp from UVP. Once exposure is complete, cells are processed to determine percent viability using Hank's Balanced Salt Solution (HBSS), Trypan blue stain, and a hemacytometer to count live and dead cells. The number of viable cells is determined and percent viability is determined

[2] = Absorption maxima of photosensitizer; assay type: physicochemical
[3] = Cell viability upon exposure of tumor cells to photosensitizer and light; assay type: cell-based, human; settings: human, U937 myeloid leukemia cells; U937 cells, 10.0 μM photosensitizer, no light exposure; read-out: percent viability
Experimental: as §1, §2, §3

SMILES | IC50 ([1]; Homo sapiens, U-937, 20 min, U937 cells exposed to light and the photosensitizer for 20 minutes, read-out: VC50/20 (concentration at which 50% decrease in cell viability is observed)) [µM] | cell viability result in words [1] | percent viability ([1]; 0.16 μM photosensitizer, light exposure 5 minutes (325-425 nm lamp), viability 24 h after exposure) [%] | percent viability ([1]; 0.16 μM photosensitizer, light exposure 10 minutes) [%] | percent viability ([1]; 0.16 μM photosensitizer, light exposure 20 minutes) [%] | percent viability ([1]; 0.32 μM photosensitizer, light exposure 5 minutes) [%] | percent viability ([1]; 0.32 μM photosensitizer, light exposure 10 minutes) [%] | percent viability ([1]; 0.32 μM photosensitizer, light exposure 20 minutes) [%] | percent viability ([1]; 0.63 μM photosensitizer, light exposure 5 minutes) [%] | percent viability ([1]; 0.63 μM photosensitizer, light exposure 10 minutes) [%] | percent viability ([1]; 0.63 μM photosensitizer, light exposure 20 minutes) [%] | absorption maxima (λmax) [2] [nm] | viability at 10 μM [3] [%] | percent viability ([1]; 1.25 μM photosensitizer, light exposure 10 minutes) [%] | percent viability ([1]; 1.25 μM photosensitizer, light exposure 20 minutes) [%] | percent viability ([1]; 5.0 μM photosensitizer, light exposure 10 minutes) [%] | percent viability ([1]; 5.0 μM photosensitizer, light exposure 20 minutes) [%] | percent viability ([1]; 10.0 μM photosensitizer, light exposure 10 minutes) [%] | percent viability ([1]; 10.0 μM photosensitizer, light exposure 20 minutes) [%]
CCOC(=O)NN(C(=O)OCC)c1c2ccccc2cc2ccccc12 [FX23] | 0.13 ± 0.03 | concentration-dependent and light exposure time-dependent decrease in cell viability | 78 | 40 | 40 | 41 | 5 | 5 | 5 | 5 | 4 | 385 | – | – | – | – | – | – | –
COc1cc(OC)c(/C=N/Nc2c3ccccc3nc3ccccc23)c(OC)c1 [FX25] | – | concentration-dependent and light exposure time-dependent decrease in cell viability | – | – | – | – | – | – | – | – | – | – | 60 | 100 | 100 | 65 | 10 | 40 | 4
